Data set [1] can be described thus: FIG. 8D. Here is the method:
Table printed on a drawing sheet, FIG. 8D
The patent's description of the figure: FIG. 8A provides the MS spectrum for Compound 7. FIG. 8B provides the HPLC chromatogram for Compound 7. FIG. 8C provides SPR assay curves showing the binding affinity of Compound 7 for IL-13, the x-axis represents time of reaction and y-axis represents altitude of response (Response Units). FIG. 8D illustrates skin permeation rate of Compound 7 for up to 24 hours. FIG. 8E illustrates average permeability coefficient (Kp) of Compound 7 for 1, 2, 4, 8, 12 and 24 hours.
First reader's note: The substance name Compound 7 comes from the legend of the plot printed above the table; the values are skin permeation over time in three replicates with their average and range.

Data set [2] can be described thus: Skin permeability, Franz Cell diffusion cell with artificial skin, Transdermal Diffusion Tester, BCA assay. The data set is classed as in vitro ADME. Particulars: for Average Permeation Rate After 24 Hours (%) / Average Permeation Rate After 1 Hour (%): 32° C., 1.0 mg/mL in PBS; for Papp at 1 h, 1 mg/mL / Average Permeation Rate After 1 Hour (%): after 1 hour; for Papp at 1 h, 1 mg/mL: read-out: Average Permeability Coefficient (Kp) After 1 hour (converted). Here is the method: As used herein, the term “skin permeation rate” of a cyclic oligopeptide is measured using artificial skin (Start M, Merck), and refers to the percentage of the cyclic oligopeptide that penetrate the artificial skin after certain amount of time. For example, if 60% of the total amount of a cyclic oligopeptide of this disclosure has penetrated the artificial skin after 24 hours, then the skin permeation rate of the cyclic oligopeptide is 60% after 24 hours.
As used herein, the term “skin permeability coefficient (Kp)” refers to the rate at which the cyclic oligopeptide penetrates the skin, as measured using artificial skin (Start M, Merck). In some embodiments, permeability coefficient (Kp)(cm/hr) is calculated with the following equation:
[formula] wherein Q(mg) refers to the total amount of cyclic oligopeptide that pass through the artificial skin within a certain amount of time; A(cm^2) refers to the internal cross-section area of the artificial skin in a diffusion cell; T(hr) refers to the total amount of time of cyclic oligopeptide permeation; and ΔC(mg/mL) refers to the concentration difference of the cyclic oligopeptide between the two sides of the artificial skin. In some embodiments, the diffusion cell is a Franz Cell.
Skin permeability of the cyclic oligopeptides generated in Example 1 was measured using Transdermal Diffusion Tester (TK-12D, Shanghai Kai Kai Industrial Co Ltd) and artificial skin (Start M, Merck). Three parallel experimental groups were set up for each sample. The skin permeability of cyclic oligopeptides was evaluated by the following steps: • 1) 2.0 mg cyclic oligopeptide was weighed and dissolved in 100 μL DMSO. Three parallel experimental groups were set up for each cyclic oligopeptide. The cyclic oligopeptide-containing solution was then slowly added dropwise to 1900 μL 1×PBS solution and mixed evenly to prepare a PBS solution with a final concentration of 1.0 mg/mL cyclic polypeptide. • 2) A magnetron was inserted into a Franz Cell diffusion cell, and an artificial skin was sandwiched in the middle of the diffusion cell with the smooth side of the artificial skin facing up. The diffusion cell was then fixed with clamps after assembly. • 3) 7.75 ml 1×PBS solution were then added to the diffusion cell without generating bubbles in the diffusion cell. The sampling port of the diffusion cell was then sealed with parafilm to reduce evaporation. • 4) The temperature of a Transdermal Diffusion Tester was then set to 32° C., and the magneton speed was set to 180 r/min. • 5) The assembled diffusion cell was then put into the Transdermal Diffusion Tester and preheated for 5-10 mins. • 6) 400 μL of 1.0 mg/mL cyclic oligopeptide solution prepared in step 1) was then added to the upper chamber of the diffusion cell, making it evenly dispersed on the surface of the artificial skin without air bubbles. The top port of the diffusion cell was then covered with parafilm to reduce evaporation. • 7) Starting from the time of adding the cyclic oligopeptide solution, samples of about 0.5 mL of the receiving solution were taken at six time points, 1 h, 2 h, 4 h, 8 h, 12 h and 24 h, using a plastic dropper to take out the samples from the sampling port of the diffusion cell. 0.5 mL of 1×PBS solution was added into the diffusion cell to restore the initial volume of the receiving solution. When sampling, the diffusion cell was tilted appropriately to avoid the generation of bubbles. The samples were then numbered and store at −20° C. • 8) A BCA Assay (Micro BCA Protein Assay Kit, Thermo Scientific) was conducted to measure the concentration of cyclic oligopeptide in samples obtained in step 7) (Actual Concentration of the cyclic oligopeptide at the particular time point). Three parallel groups were used. The weight of cyclic oligopeptide in each sample obtained in step 7) equals to Actual Concentration×0.5 mL. • 9) Permeation rate of each cyclic oligopeptide at each time point was calculated according to the following equation: […]

For data set [3], the target named is Human IL-13 (Homo sapiens, UniProt P35225). Description: Surface plasmon resonance (SPR) binding assay, BIAcore 8K plus, immobilized Fc-tagged IL-13. Particulars: 25° C., human IL-13 with Fc-tag immobilized on CM5 chip, read-out: Binding Affinity (KD) for IL-13. Here is the method:
A SPR assay was conducted to determine the binding affinity of the cyclic oligopeptides generated in Example 1 for IL-13 using a BIAcore 8K plus instrument (GE Healthcare). Human IL-13 with an Fc-tag was immobilized onto the surfaces of Series S Sensor CM5 (GE Healthcare) chips in the range of 5000 resonance units (RU). The binding kinetics were performed at 25° C. with a flow rate of 30 μL/min. The cyclic oligopeptides were analyzed in running buffer comprising 20 mM PBS, 2.7 mM KCl, […], 0.0500 Surfactant P20, pH 7.4, 1% DMSO, starting at 100 μM with gradient of ten two-fold dilutions using solvent correction mode.
FIGS. 2C, 3C, 4C, 5C, 6C, 7C, 8C, 9C, 10C, 11C, and 12C provide SPR response curves for the cyclic oligopeptides generated in Example 1, wherein the x-axis represents time of reaction and y-axis represents altitude of response (Response Units).

The nature of data set [4]: FIG. 12D. Here is the method:
Table printed on a drawing sheet, FIG. 12D
The patent's description of the figure: FIG. 12A provides the MS spectrum for Compound 11. FIG. 12B provides the HPLC chromatogram for Compound 11. FIG. 12C provides SPR assay curves showing the binding affinity of Compound 11 for IL-13, the x-axis represents time of reaction and y-axis represents altitude of response (Response Units). FIG. 12D illustrates skin permeation rate of Compound 11 for up to 24 hours. FIG. 12E illustrates average permeability coefficient (Kp) of Compound 11 for 1, 2, 4, 8, 12 and 24 hours.
First reader's note: The substance name is taken from the legend of the plot printed above the table on the same sheet; the last column is the range (max minus min) of the three replicates.

Data set [5] is described as follows: FIG. 9D. Here is the method:
Table printed on a drawing sheet, FIG. 9D
The patent's description of the figure: FIG. 9A provides the MS spectrum for Compound 8. FIG. 9B provides the HPLC chromatogram for Compound 8. FIG. 9C provides SPR assay curves showing the binding affinity of Compound 8 for IL-13, the x-axis represents time of reaction and y-axis represents altitude of response (Response Units). FIG. 9D illustrates skin permeation rate of Compound 8 for up to 24 hours. FIG. 9E illustrates average permeability coefficient (Kp) of Compound 8 for 1, 2, 4, 8, 12 and 24 hours.
First reader's note: The substance name is taken from the legend of the plot printed above the table in the same figure; the values are three replicate permeation rates, their average and their range.

The nature of data set [6]: FIG. 10D. Here is the method: Table printed on a drawing sheet, FIG. 10D
The patent's description of the figure: FIG. 10A provides the MS spectrum for Compound 9. FIG. 10B provides the HPLC chromatogram for Compound 9. FIG. 10C provides SPR assay curves showing the binding affinity of Compound 9 for IL-13, the x-axis represents time of reaction and y-axis represents altitude of response (Response Units). FIG. 10D illustrates skin permeation rate of Compound 9 for up to 24 hours. FIG. 10E illustrates average permeability coefficient (Kp) of Compound 9 for 1, 2, 4, 8, 12 and 24 hours.
First reader's note: The substance name is taken from the legend of the plot printed above the table; three replicate permeation values, their average and their range per time point.

The nature of data set [7]: FIG. 11D. Here is the method:
Table printed on a drawing sheet, FIG. 11D
The patent's description of the figure: FIG. 11A provides the MS spectrum for Compound 10. FIG. 11B provides the HPLC chromatogram for Compound 10. FIG. 11C provides SPR assay curves showing the binding affinity of Compound 10 for IL-13, the x-axis represents time of reaction and y-axis represents altitude of response (Response Units). FIG. 11D illustrates skin permeation rate of Compound 10 for up to 24 hours. FIG. 11E illustrates average permeability coefficient (Kp) of Compound 10 for 1, 2, 4, 8, 12 and 24 hours.
First reader's note: The substance name comes from the legend of the plot above the table; columns 2-4 are three replicate permeation measurements, followed by their average and range.

Where “and” joins values, the source holds several entries; their conditions need not be identical. Identical values can stand only once. Square brackets hold non-standard residues; d marks the D form. Peptide text beside a SMILES is read from it. A value given as a limit tells only on which side of the number the result lay.

Sequence of Human IL-13 (P35225 25-146): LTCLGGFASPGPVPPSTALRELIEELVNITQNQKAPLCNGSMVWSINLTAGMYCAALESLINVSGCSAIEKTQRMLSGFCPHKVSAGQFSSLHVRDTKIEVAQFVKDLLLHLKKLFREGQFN

On to `CC(C)C[C@H]1NC(=O)[C@@H]2CCCN2C(=O)[C@@H](Cc2ccccc2)NC(=O)[C@H](CCCNC(=N)N)NC(=O)[C@H]([C@@H](C)O)NC(=O)[C@H]2CCCN2C1=O` [Compound 7, Thr Arg D-Phe Pro D-Leu D-Pro] (cyclo(P[dL][dP]TR[dF])), for which the “Permeation Avg. (%)” value in data set [1] is 28.31% and 31.36% and 33.66% and 36.74%. For the same compound, in data set [2] (after 24 hours), the “Average Permeation Rate After 24 Hours (%)” value came to 38.84%. Moreover, the Papp at 1 h, 1 mg/mL in data set [2] was 15.2 ×10⁻⁶ cm/s. Also, the Kd in data set [3] came to 85.1 µM.
In the case of `CC(C)C[C@@H]1NC(=O)[C@@H](C(C)C)NC(=O)[C@@H](Cc2c[nH]c3ccccc23)NC(=O)[C@@H](CC(C)C)NC(=O)[C@@H]2CCCN2C(=O)[C@H](C(C)C)NC(=O)[C@@H]2CCCN2C(=O)[C@H](CCCNC(=N)N)NC1=O` [Compound 11, Val Pro D-Leu D-Trp D-Val Leu Arg Pro] (cyclo(LRPVP[dL][dW][dV])), in data set [2], the “Average Permeation Rate After 1 Hour (%)” value is 11.77% and the Papp at 1 h, 1 mg/mL is 7.22 ×10⁻⁶ cm/s. Moreover, in data set [3], the Kd amounted to 622 µM. In data set [4], the “Permeation Avg. (%)” value was 15.61% and 19.18% and 21.74% and 23.90%.
For the compound `CSCC[C@@H]1NC(=O)[C@H](Cc2c[nH]c3ccccc23)NC(=O)[C@@H]2CCCN2C(=O)[C@H](CCC(=O)O)NC(=O)[C@H](CCCNC(=N)N)NC(=O)[C@@H](CC(C)C)NC(=O)[C@@H]2CCCN2C1=O` [Compound 8, D-Leu Arg Glu Pro Trp Met Pro] (cyclo(EPWMP[dL]R)), the “Permeation Avg. (%)” value in data set [5] is 17.57% and 23.24% and 27.76% and 32.33%. Further, in data set [2], the “Average Permeation Rate After 1 Hour (%)” value was found to be 12.44% and the Papp at 1 h, 1 mg/mL was 7.39 ×10⁻⁶ cm/s. For the same compound, the “Average Permeation Rate After 24 Hours (%)” value in data set [2] (after 24 hours) was found to be 35.20%. In addition, in data set [2] (after 24 hours, read-out: Average Permeability Coefficient (Kp) After 24 hours), the Papp at 24 h, 1 mg/mL was greater than 0.0278 ×10⁻⁶ cm/s.
On to `CC(C)C[C@@H]1NC(=O)[C@@H](CCCNC(=N)N)NC(=O)[C@@H]2CCCN2C(=O)[C@H](CCC(=O)O)NC(=O)[C@@H]([C@H](C)O)NC(=O)[C@H](Cc2c[nH]c3ccccc23)NC(=O)[C@@H](Cc2c[nH]c3ccccc23)NC1=O` [Compound 9, D-Arg Leu D-Trp Trp D-Thr Glu Pro] (cyclo(EP[dR]L[dW]W[dT])), for which, in data set [6], the “Permeation Avg. (%)” value was 31.10% and 41.93% and 48.23% and 55.09%. The Papp at 1 h, 1 mg/mL in data set [2] was 14 ×10⁻⁶ cm/s. Further, in data set [3], the Kd worked out at 337 µM.
`N=C(N)NCCC[C@@H]1NC(=O)[C@H]2CCCN2C(=O)[C@@H](Cc2c[nH]c3ccccc23)NC(=O)[C@H]2CCCN2C(=O)[C@H](CS)NC(=O)[C@H](Cc2ccc(O)cc2)NC(=O)[C@H](CC(=O)O)NC1=O` [Compound 10, Arg Asp Tyr Cys D-Pro D-Trp D-Pro] (cyclo(C[dP][dW][dP]RDY)): the “Permeation Avg. (%)” value in data set [7] was 29.18% and 39.99% and 47.96% and 56.44%. In data set [2], the “Average Permeation Rate After 1 Hour (%)” value is given as 18.96% and the Papp at 1 h, 1 mg/mL is 11.7 ×10⁻⁶ cm/s. Also, the Kd in data set [3] worked out at 368 µM.

These data come from patent US12180307B2, “Interleukin-13 binding cyclic oligopeptides and methods of use thereof” (B.A.I. LABORATORIES, LLC, priority 2022, dated 2024).
